Series [1] in a line: Mouse Pharmacokinetic Studies (50 mg/kg oral gavage, plasma LC-MS/MS). Format: in vivo. Conditions: male C57BL/6 mice, non-fasted. Here is the method:
Compounds were formulated in 5% DMSO, 5% Solutol, and 90% PBS without Ca and Mg (pH 7.4) at a concentration of […]. Male C57BL/6 mice (n=6/compound) were administered a 50 mg/kg dose of each compound by oral gavage under a non-fasted condition. Blood samples were collected via the Submandibular vein onto K2-EDTA at 0.5, 1, 2, 4, 8 and 24 hours after dosing, and plasma was prepared and stored at −80° C. until analysis. Plasma sample preparation for analysis was done by protein precipitation using acetonitrile (including Verapamil as an internal standard) followed by centrifugation. Compound concentrations were determined in extracted plasma using LC-MS/MS relative to a 12-point standard curve covering the 1 to 4000 nM range. Non-compartmental analysis using Phoenix WinNonlin was used to estimate pharmacokinetic parameters including area under the curve, clearance, and half-life. The administered dose was confirmed by analysis of residual dosing material by UPLC-UV relative to a single point calibration sample.

The target of the next series is T1, human MRGPRX2 (Homo sapiens, UniProt Q96LB1).
T1 construct: expressed in transfected cells; host or cells: CHO cells, stably transfected (G418 and Hygromycin B selection)
T1 sequence (Q96LB1 1-330): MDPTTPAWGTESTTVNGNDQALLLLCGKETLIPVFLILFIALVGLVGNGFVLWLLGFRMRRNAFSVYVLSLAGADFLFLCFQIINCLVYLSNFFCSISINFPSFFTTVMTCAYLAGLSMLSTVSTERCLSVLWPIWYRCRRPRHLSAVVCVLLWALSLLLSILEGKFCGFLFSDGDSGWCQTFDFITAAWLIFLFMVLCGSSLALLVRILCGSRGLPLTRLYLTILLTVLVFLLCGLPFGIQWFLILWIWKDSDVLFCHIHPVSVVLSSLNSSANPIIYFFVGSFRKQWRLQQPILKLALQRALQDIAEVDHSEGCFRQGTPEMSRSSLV
The experiment in a line: MRGPRX2 activity: IP-One Gq HTRF assay in CHO cells, antagonism versus 0.3 uM Cortistatin-14. Format: cell-based. To be noted: versus 0.3 uM Cortistatin-14 agonist, CHO cells expressing human MRGPRX2, read-out: MRGPRX2 Antagonist Activity. The method, boiled down: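 Antagonist IC50 was derived from the HTRF IP-1 signal after co-addition of compounds (10 points, top 30 uM, 3-fold steps) and 0.3 μM Cortistatin-14 agonist to human MRGPRX2-expressing CHO cells. Assay buffer contained 50 mM LiCl, pH 8; plates sat 1 h at 37 °C, then 1 h at room temperature.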
On the technique in general: In TR-FRET formats the signal depends on donor and acceptor labels being close together.

For a further series, the system named is Human LAD2 cells. Kind of series: Mast Cell Beta-Hexosaminidase Release Assay (LAD2 cells, 500 nM Cortistatin-14). It is filed as cell-based. Conditions: read-out: MRGPRX2 Antagonist Activity. Here is the method: Human LAD2 cells (NIH) were maintained in an incubator at 37° C. with 5% CO2 and cultured in StemPro-34 serum-free media (Gibco 10639011) supplemented with 2 mM L-glutamine, 100 U/ml penicillin, […] streptomycin and 100 ng/ml SCF (Invitrogen PEP0860), at a concentration of 2-5×10^5 cells/mL, with hemidepletion every 1-2 weeks.
Cells were transferred to SCF-Free medium at 2.5×10^5 cells/mL and kept in an incubator overnight. On the day of the assay, cells were washed twice in Assay Buffer (final concentrations 10 mM HEPES, 137 mM NaCl, 5.6 mM D-glucose, 2.7 mM KCl, 1 mM MgCl, 1.8 mM CalCl2, 0.4 mM Na2HPO4·7H2O, 0.04% BSA, pH=7.4) and plated in a 96-well v-bottom plate at 20,000 cells per well in 80 μL Assay Buffer. Antagonist compounds solubilized at 10 mM in DMSO were diluted in Assay Buffer to 10× final desired concentrations as a 10-point curve (10 μM final top concentration with 1:3 serial dilutions) and 10 μL added per well. Plates were then incubated for 1 hour at 37° C. Agonists were diluted in Assay Buffer to 10× desired concentrations and 10 μL of the appropriate agonist added to each well. The final concentration of Cortistatin-14 (Tocris 3374) used in antagonist assays was 500 nM. Final concentrations of DMSO were kept consistent across the plate. Plates were then incubated in a warm air oven for 30 minutes at 37° C., followed by centrifugation at 4° C. for 5 minutes at 450×g. 50 μL supernatant from each well was then transferred to a 96-well flat bottom plate containing 100 μL substrate solution per well (3.5 mg/mL p-Nitrophenyl-N-acetyl-o-D-glucosaminide (Sigma 487052) in Citrate Buffer containing a final concentration of 40 mM Citric Acid, 20 mM Na2HPO4·7H2O, pH=4.5). To the cell pellets left in the remaining assay buffer, 150 μL 0.1% Triton-X-100 was then added to each well, resuspended by pipetting up and down, and 50 μL cell lysates transferred to a second 96-well flat bottom plate containing 100 μL substrate solution per well. Plates containing transferred supernatant and cell lysates were then incubated in a warm air oven for 90 minutes at 37° C. After incubation, 50 μL of 400 mM Glycine buffer (pH 10.7) was added into each well and the plate was read on a Molecular Devices SpectraMax iD5 plate reader (absorbance at 405 nm with reference filter at 620 nm). After background subtraction, the percentage degranulation (percent beta-hexosaminidase release) was calculated as 100×(supernatant values)/(supernatant+lysate values), followed by analysis using GraphPad Prism software to calculate an IC50 value for each compound.
The activity ranges are denoted as follows: “+++++” denotes antagonist activity <100 nM; “++++” denotes antagonist activity between 100 and 500 nM; “+++” denotes activity between 501 and 1000 nM; “++” denotes activity between 1001 and 2500 nM; and “+” denotes activity >2500 nM.

A short description of series [2]: Solubility Studies in FaSSIF, FeSSIF, FaSSGF (24 hours, room temperature, UPLC-UV). It is filed as physicochemical. Conditions: kinetic from dmso stock, 24 hours at room temperature. The protocol:
Media according to Biorelevant Media protocols was prepared. 10 μL of 10 mM in DMSO stock solutions of test compounds was added to 96-well deep plate. 490 μL of FaSSIF, FeSSIF, or FaSSGF was then added into appropriate wells of 96-well deep plate. The plate was vortexed for 2 minutes then placed on a plate shaker for 24 hours at room temperature. The plate was centrifuged for 20 minutes, then supernatant was collected and filtered with […] syringe filter into UPLC vials for injection into UPLC-UV system. Concentration was calculated with a 3-point standard curve.

The mark [3] stands for this setting: male, C57BL/6, mouse, po, 50 mg/kg.
The mark [4] stands for this setting: Homo sapiens, LAD2, Mast Cell Beta-Hexosaminidase Release Assay.
Setting [5] is: fassgf or other biorelevant, solubility in FaSSGF, read-out: FaSSGF.
[6] abbreviates: solubility in FaSSIF, read-out: FaSSIF.
[7] abbreviates: solubility in FeSSIF, read-out: FeSSIF.
[8] abbreviates: Mast Cell Beta-Hexosaminidase Release Assay.

The record followed here is patent US20250170141A1, “MRGPRX2 MODULATORS AND RELATED METHODS OF TREATMENT” (Escient Pharmaceuticals, Inc., priority 2023, published 2025).

≈ marks a conversion by molar mass, not a printed value. Read-outs that look alike come from different tables or passages of the source.

For orientation: Cmax means the maximum level reached in the sampled fluid or tissue. For orientation: half-life means how long it takes for the measured level to halve. A high value points to slow decline. Turning to `CC(c1ccccc1F)c1c(F)ccc2c1NC(NCc1ncccc1F)=NS2(=O)=O` (single isomer, unassigned) [Compound 10-1A], in series [1] (50 mg/kg), the concentration peaked (Cmax) at 4.6 µM. For the same compound, the TBC in series [1] (50 mg/kg) worked out at 1.56 L/h/kg. This compound also gave a half-life in series [1] (setting [3]) of 2.6 h. Further, the IC50 at human MRGPRX2 is less than 0.1 µM; in the series on Human LAD2 cells (setting [4]) it was 0.1 to 0.5 µM.
As for `CC(c1ccccc1F)c1c(F)ccc2c1NC(NCc1ncccc1F)=NS2(=O)=O` (single isomer, unassigned) [Compound 10-1B], the concentration in series [1] (50 mg/kg) peaked (Cmax) at 14 µM. This compound also returned a T1/2 in series [1] (50 mg/kg) of 1.8 h. Moreover, the TBC in series [1] (50 mg/kg) amounted to 0.54 L/h/kg. Moreover, the IC50 at human MRGPRX2 and with Human LAD2 cells (setting [8]) was less than 0.1 µM each time. In addition, the solubility kinetic at 24 h amounted to 61 µM (≈ 27.2 µg/mL) in series [2] (setting [5]), 133 µM (≈ 59.4 µg/mL) in series [2] (setting [6]) and 200 µM (≈ 89.3 µg/mL) in series [2] (setting [7]).
`CC(c1ccccc1F)c1c(F)ccc2c1NC(NCc1cccc(F)n1)=NS2(=O)=O` (single isomer, unassigned) [Compound 10-2A]: in series [1] (50 mg/kg), the concentration peaked (Cmax) at 2.7 µM, the T1/2 worked out at 3.0 h and the TBC was 1.8 L/h/kg. Moreover, the IC50 at human MRGPRX2 is less than 0.1 µM. The IC50 in the series with Human LAD2 cells (setting [8]) lay within 0.501 to 1 µM.
For the compound `CC(c1ccccc1F)c1c(F)ccc2c1NC(NCc1cccc(F)n1)=NS2(=O)=O` (single isomer, unassigned) [Compound 10-2B], the TBC in series [1] (50 mg/kg) amounted to 1.62 L/h/kg. In series [1] (setting [3]), this compound yielded a Cmax of 4.4 µM. Also, the half-life in series [1] (setting [3]) was 2.3 h. The IC50 on human MRGPRX2 and in the series with Human LAD2 cells (setting [8]) was less than 0.1 µM in each case. Also, the solubility kinetic at 24 h was 11 µM (≈ 4.91 µg/mL) in series [2] (setting [5]), 162 µM (≈ 72.3 µg/mL) in series [2] (setting [6]) and 186 µM (≈ 83 µg/mL) in series [2] (setting [7]).
As for `Cc1c(F)cccc1CNC1=NS(=O)(=O)c2ccc(F)c(C(C)c3ccccc3F)c2N1` (single isomer, unassigned) [Compound 10-3A], the highest level in series [1] (50 mg/kg) (Cmax) was 0.37 µM. Besides, the TBC in series [1] (50 mg/kg) was found to be 0.258 L/h/kg. The compound further gave a half-life in series [1] (setting [3]) of 2.5 h. Also, the IC50 at human MRGPRX2 was less than 0.1 µM; with Human LAD2 cells (setting [4]) it was 0.1 to 0.5 µM.
In series [1] (50 mg/kg), `Cc1c(F)cccc1CNC1=NS(=O)(=O)c2ccc(F)c(C(C)c3ccccc3F)c2N1` (single isomer, unassigned) [Compound 10-3B] yielded a Cmax of 4.2 µM, a T1/2 of 2 h and a TBC of 2.46 L/h/kg. On human MRGPRX2, the IC50 was less than 0.1 µM. The IC50 in the series with Human LAD2 cells (setting [8]) was less than 0.1 µM.
Take `CC(c1ccc(F)cc1)c1c(F)ccc2c1NC(NCc1ncccc1F)=NS2(=O)=O` (single isomer, unassigned) [Compound 10-4A]: in series [1] (50 mg/kg), the TBC amounted to 0.66 L/h/kg. In series [1] (setting [3]), this compound had a Cmax of 9.6 µM and a half-life of 4.4 h. Also, the IC50 at human MRGPRX2 is less than 0.1 µM. Moreover, the IC50 in the series on Human LAD2 cells (setting [4]) was in the range of 0.1 to 0.5 µM.
Compound `CC(c1ccc(F)cc1)c1c(F)ccc2c1NC(NCc1ncccc1F)=NS2(=O)=O` (single isomer, unassigned) [Compound 10-4B] came in with a Cmax in series [1] (50 mg/kg) of 10 µM. Further, the T1/2 in series [1] (50 mg/kg) was 2.2 h. The TBC in series [1] (50 mg/kg) was determined as 0.72 L/h/kg. Moreover, the IC50 on human MRGPRX2 and with Human LAD2 cells (setting [8]) was less than 0.1 µM each time. In addition, the figures for the solubility kinetic at 24 h in series [2] (setting [5]), in series [2] (setting [6]) and in series [2] (setting [7]) were 3 µM (≈ 1.34 µg/mL), 23 µM (≈ 10.3 µg/mL) and 37 µM (≈ 16.5 µg/mL), respectively.
`CC(c1ccccc1F)c1c(F)ccc2c1NC(NCc1cccc(F)c1)=NS2(=O)=O` (single isomer, unassigned) [Compound 10-5A] registered a Cmax in series [1] (50 mg/kg) of 2.8 µM. For the same compound, in series [1] (50 mg/kg), the TBC worked out at 3 L/h/kg. This compound also had a half-life in series [1] (setting [3]) of 2.2 h. The IC50 on human MRGPRX2 is less than 0.1 µM; in the series on Human LAD2 cells (setting [8]), 1 to 2.5 µM.
Compound `CC(c1ccccc1F)c1c(F)ccc2c1NC(NCc1cccc(F)c1)=NS2(=O)=O` (single isomer, unassigned) [Compound 10-5B] registered a Cmax in series [1] (50 mg/kg) of 7.1 µM. This compound returned a T1/2 in series [1] (50 mg/kg) of 2.5 h. Also, the TBC in series [1] (50 mg/kg) worked out at 0.72 L/h/kg. The IC50 at human MRGPRX2 and in the series with Human LAD2 cells (setting [8]) was less than 0.1 µM throughout. Moreover, the solubility kinetic at 24 h in series [2] (setting [5]) was less than 3.1 µM; in series [2] (setting [6]) it was 158 µM (≈ 70.4 µg/mL); in series [2] (setting [7]), 136 µM (≈ 60.6 µg/mL).
Turning to `O=S1(=O)N=C(NCc2ncccc2F)Nc2c(Oc3ccccc3Cl)cc(F)cc21` [Compound 1-264, 5-(2-chlorophenoxy)-7-fluoro-3-(((3-fluoropyridin-2-yl)methyl)amino)-4H-benzo[e][1,2,4]thiadiazine 1,1-dioxide], in series [1], the TBC came out at 1.92 L/h/kg. In series [1] (setting [3]), this compound came in with a Cmax of 1.1 µM. In series [1] (setting [3]), this compound showed a half-life of 3.8 h. The IC50 on human MRGPRX2 and with Human LAD2 cells (setting [4]) was less than 0.1 µM throughout. In addition, the solubility kinetic at 24 h in series [2] (setting [5]), in series [2] (setting [6]) and in series [2] (setting [7]) was less than 12.5 µM throughout.
As for `C[C@H](c1ccccc1F)c1c(F)c(F)cc2c1NC(NCc1ncccc1F)=NS2(=O)=O` [Compound 10-6B, (R)-6,7-difluoro-5-(1-(2-fluorophenyl)ethyl)-3-(((3-fluoropyridin-2-yl)methyl)amino)-4H-benzo[e][1,2,4]thiadiazine 1,1-dioxide], the TBC in series [1] was 1.98 L/h/kg. Besides, in series [1] (setting [3]), the Cmax is 2.7 µM. The IC50 on human MRGPRX2 and in the series with Human LAD2 cells (setting [4]) was 0.1 to 0.5 µM each time.
